The target in one assay is T1, WEE1 (Homo sapiens, UniProt P30291+Q96SW2).
T1 construct: C-terminal ePL-tagged (DiscoverX, Fremont, CA) full-length WEE1 expression construct; expressed in transfected cells; host or cells: LentiX-HEK293T (Invitrogen), lentiviral transduction; co-expressing GSPT1-GN (G576N, lacking the first 158 amino acids)
Put plainly: WEE1-ePL degradation assay (LentiX-WEE1-ePL-GSPT1-ND cells, InCELL Hunter luminescence, 4 h). The class given is cell-based. The following applies: 293T-LentiX WEE1-ePL cells; for 293T-LentiX WEE1-ePL Degradation 4 hr (Ymin): lower limit of the fit (0 = luciferase inhibitor, Ymax = DMSO control); for DC50: read-out: 293T-LentiX WEE1-ePL Degradation 4 hr (EC50). In a few lines:
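LentiX-HEK293T cells stably expressing C-terminally ePL-tagged full-length WEE1 were treated with compounds in a 10-point, 3-fold dilution series starting at 1 uM or 10 uM for 4 h at 37 °C. Remaining WEE1-ePL was detected by InCELL Hunter luminescence, and EC50, Ymin and Ymax came from a four-parameter logistic fit against DMSO control.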

A further assay has as its system MKN45 cells. Put plainly: MKN45 cell proliferation assay (Cell-Titer-Glo, 120 h). The format is cell-based. As to conditions: for EC50: Homo sapiens, MKN-45, 120 h, Cell-Titer-Glo, growth inhibition, read-out: MKN45 Cell Prolif. 120 hr (EC50); for MKN45 Cell Prolif. 120 hr (Ymin-Obs): minimal percent of DMSO control observed in the concentrations tested. The essentials: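 Cells seeded at 400/well onto pre-printed 10-point half-log dilutions (top 1 or 10 uM, 0.1% DMSO final), in triplicate, and grown 120 h at 37 C. Viability by Cell-Titer-Glo luminescence, blank-subtracted and normalised to DMSO; EC50 from four-parameter logistic fit, with observed minimal % of control recorded as Ymin-obs.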

Data on 15 compounds can be found in patent publication US20240067632A1, “WEE1 Degrading Compounds and Uses Thereof” (Bristol-Myers Squibb Company, priority 2022, published 2024).

By EC50 is commonly meant the concentration giving half of the maximal effect.

Consider `COc1cnc2ccc(CN3CC[C@H](Oc4ccc5c(c4)CN(C4CCC(=O)NC4=O)C5=O)C3)cc2c1` (stereo partly drawn) [3-(5-{[(3S)-1-[(3-methoxyquinolin-6-yl)methyl]pyrrolidin-3-yl]oxy}-1-oxo-2,3-dihydro-1H-isoindol-2-yl)piperidine-2,6-dione], for which, at WEE1, the “293T-LentiX WEE1-ePL Degradation 4 hr (Ymin)” value is 34 and the DC50 came out at 0.00325 µM. In the assay with MKN45 cells, the EC50 came out at 0.0191 µM and the “MKN45 Cell Prolif. 120 hr (Ymin-Obs)” value worked out at 12.81.

As to `Cc1cnc2ccc(CN3CC[C@H](Oc4ccc5c(c4)CN(C4CCC(=O)NC4=O)C5=O)C3)cc2c1` (stereo partly drawn) [3-(5-{[(3S)-1-[(3-methylquinolin-6-yl)methyl]pyrrolidin-3-yl]oxy}-1-oxo-2,3-dihydro-1H-isoindol-2-yl)piperidine-2,6-dione], at WEE1, the “293T-LentiX WEE1-ePL Degradation 4 hr (Ymin)” value stood at 38.21 and the DC50 stood at 0.00447 µM. In addition, in the assay on MKN45 cells, the EC50 is 0.0635 µM and the “MKN45 Cell Prolif. 120 hr (Ymin-Obs)” value came to 21.51.

`Cc1cncc(CN2CC[C@H](Oc3ccc4c(c3)CN(C3CCC(=O)NC3=O)C4=O)C2)c1C` (stereo partly drawn) [3-(5-{[(3S)-1-[(4,5-dimethylpyridin-3-yl)methyl]pyrrolidin-3-yl]oxy}-1-oxo-2,3-dihydro-1H-isoindol-2-yl)piperidine-2,6-dione]: on WEE1, the “293T-LentiX WEE1-ePL Degradation 4 hr (Ymin)” value is recorded as 37.63 and the DC50 was 0.0407 µM. Moreover, in the assay with MKN45 cells, the EC50 stood at 0.407 µM and the “MKN45 Cell Prolif. 120 hr (Ymin-Obs)” value turned out to be 62.92.

For the compound `Cc1cc(Cl)c2cc(CN3CC[C@H](Oc4ccc5c(c4)CN(C4CCC(=O)NC4=O)C5=O)C3)ccc2n1` (stereo partly drawn) [3-(5-{[(3S)-1-[(4-chloro-2-methylquinolin-6-yl)methyl]pyrrolidin-3-yl]oxy}-1-oxo-2,3-dihydro-1H-isoindol-2-yl)piperidine-2,6-dione], on WEE1, the “293T-LentiX WEE1-ePL Degradation 4 hr (Ymin)” value was 32.06 and the DC50 came out at 0.00429 µM. Besides, in the assay on MKN45 cells, the EC50 is 0.392 µM and the “MKN45 Cell Prolif. 120 hr (Ymin-Obs)” value turned out to be 44.06.

In the case of `Cc1cc(F)c2cc(CN3CC[C@H](Oc4ccc5c(c4)CN(C4CCC(=O)NC4=O)C5=O)C3)ccc2n1` (stereo partly drawn) [3-(5-{[(3S)-1-[(4-fluoro-2-methylquinolin-6-yl)methyl]pyrrolidin-3-yl]oxy}-1-oxo-2,3-dihydro-1H-isoindol-2-yl)piperidine-2,6-dione], on WEE1, the “293T-LentiX WEE1-ePL Degradation 4 hr (Ymin)” value was found to be 69.445 and the DC50 was found to be 0.0227 µM. In addition, in the assay with MKN45 cells, the EC50 is at least 10 µM and the “MKN45 Cell Prolif. 120 hr (Ymin-Obs)” value is 24.82.

Consider `Cc1cc(O)c2cc(CN3CC[C@H](Oc4ccc5c(c4)CN(C4CCC(=O)NC4=O)C5=O)C3)ccc2n1` (stereo partly drawn) [3-(5-{[(3S)-1-[(4-hydroxy-2-methylquinolin-6-yl)methyl]pyrrolidin-3-yl]oxy}-1-oxo-2,3-dihydro-1H-isoindol-2-yl)piperidine-2,6-dione], for which, at WEE1, the “293T-LentiX WEE1-ePL Degradation 4 hr (Ymin)” value was 73 and the DC50 worked out at 0.528 µM. In the assay with MKN45 cells, the EC50 is above 10 µM and the “MKN45 Cell Prolif. 120 hr (Ymin-Obs)” value was found to be 87.83.

Take `COc1cc(C)nc2ccc(CN3CC[C@H](Oc4ccc5c(c4)CN(C4CCC(=O)NC4=O)C5=O)C3)cc12` (stereo partly drawn) [3-(5-{[(3S)-1-[(4-methoxy-2-methylquinolin-6-yl)methyl]pyrrolidin-3-yl]oxy}-1-oxo-2,3-dihydro-1H-isoindol-2-yl)piperidine-2,6-dione]: at WEE1, the “293T-LentiX WEE1-ePL Degradation 4 hr (Ymin)” value came to 44.38 and the DC50 turned out to be 0.0268 µM. In addition, in the assay on MKN45 cells, the EC50 amounted to 1.5 µM and the “MKN45 Cell Prolif. 120 hr (Ymin-Obs)” value is reported as 47.92.

Consider `CN1CC(=O)Oc2cc(CN3CC[C@H](Oc4ccc5c(c4)CN(C4CCC(=O)NC4=O)C5=O)C3)ccc21` (stereo partly drawn) [3-(5-{[(3S)-1-[(4-methyl-2-oxo-3,4-dihydro-2H-1,4-benzoxazin-7-yl)methyl]pyrrolidin-3-yl]oxy}-1-oxo-2,3-dihydro-1H-isoindol-2-yl)piperidine-2,6-dione], for which, at WEE1, the “293T-LentiX WEE1-ePL Degradation 4 hr (Ymin)” value is 52 and the DC50 amounted to 0.0242 µM. Moreover, in the assay on MKN45 cells, the EC50 is above 10 µM and the “MKN45 Cell Prolif. 120 hr (Ymin-Obs)” value is 91.915.

For `CN1C(=O)COc2ccc(CN3CC[C@H](Oc4ccc5c(c4)CN(C4CCC(=O)NC4=O)C5=O)C3)cc21` (stereo partly drawn) [3-(5-{[(3S)-1-[(4-methyl-3-oxo-3,4-dihydro-2H-1,4-benzoxazin-6-yl)methyl]pyrrolidin-3-yl]oxy}-1-oxo-2,3-dihydro-1H-isoindol-2-yl)piperidine-2,6-dione], on WEE1, the “293T-LentiX WEE1-ePL Degradation 4 hr (Ymin)” value was found to be 56 and the DC50 was determined as 0.0479 µM. Further, in the assay on MKN45 cells, the EC50 was above 10 µM and the “MKN45 Cell Prolif. 120 hr (Ymin-Obs)” value turned out to be 84.725.

In the case of `Cc1ccnc(CN2CC[C@H](Oc3ccc4c(c3)CN(C3CCC(=O)NC3=O)C4=O)C2)c1` (stereo partly drawn) [3-(5-{[(3S)-1-[(4-methylpyridin-2-yl)methyl]pyrrolidin-3-yl]oxy}-1-oxo-2,3-dihydro-1H-isoindol-2-yl)piperidine-2,6-dione], on WEE1, the “293T-LentiX WEE1-ePL Degradation 4 hr (Ymin)” value amounted to 38.55 and the DC50 turned out to be 0.0654 µM. Moreover, in the assay on MKN45 cells, the EC50 is 1.33 µM and the “MKN45 Cell Prolif. 120 hr (Ymin-Obs)” value came to 42.67.

As to `O=C1CCC(N2Cc3cc(O[C@H]4CCN(Cc5cnc6ccc(F)c(F)c6c5)C4)ccc3C2=O)C(=O)N1` (stereo partly drawn) [3-(5-{[(3S)-1-[(5,6-difluoroquinolin-3-yl)methyl]pyrrolidin-3-yl]oxy}-1-oxo-2,3-dihydro-1H-isoindol-2-yl)piperidine-2,6-dione], at WEE1, the “293T-LentiX WEE1-ePL Degradation 4 hr (Ymin)” value is listed as 43.98 and the DC50 was 0.0133 µM. In addition, in the assay with MKN45 cells, the EC50 came out at 0.166 µM and the “MKN45 Cell Prolif. 120 hr (Ymin-Obs)” value is recorded as 44.73.

For the compound `Cc1cc(CN2CC[C@H](Oc3ccc4c(c3)CN(C3CCC(=O)NC3=O)C4=O)C2)cnc1C` (stereo partly drawn) [3-(5-{[(3S)-1-[(5,6-dimethylpyridin-3-yl)methyl]pyrrolidin-3-yl]oxy}-1-oxo-2,3-dihydro-1H-isoindol-2-yl)piperidine-2,6-dione], at WEE1, the “293T-LentiX WEE1-ePL Degradation 4 hr (Ymin)” value was determined as 35.675 and the DC50 is 0.0259 µM. In the assay on MKN45 cells, the EC50 turned out to be 0.955 µM and the “MKN45 Cell Prolif. 120 hr (Ymin-Obs)” value is 43.03.

As for `Cc1ccc2c(F)c(CN3CC[C@H](Oc4ccc5c(c4)CN(C4CCC(=O)NC4=O)C5=O)C3)ccc2n1` (stereo partly drawn) [3-(5-{[(3S)-1-[(5-fluoro-2-methylquinolin-6-yl)methyl]pyrrolidin-3-yl]oxy}-1-oxo-2,3-dihydro-1H-isoindol-2-yl)piperidine-2,6-dione], on WEE1, the “293T-LentiX WEE1-ePL Degradation 4 hr (Ymin)” value was 28.365 and the DC50 was found to be 0.00151 µM. For the same compound, in the assay with MKN45 cells, the EC50 was determined as 0.00808 µM and the “MKN45 Cell Prolif. 120 hr (Ymin-Obs)” value worked out at 9.22.

`O=C1CCC(N2Cc3cc(O[C@H]4CCN(Cc5cc6c(F)cccc6cn5)C4)ccc3C2=O)C(=O)N1` (stereo partly drawn) [3-(5-{[(3S)-1-[(5-fluoroisoquinolin-3-yl)methyl]pyrrolidin-3-yl]oxy}-1-oxo-2,3-dihydro-1H-isoindol-2-yl)piperidine-2,6-dione]: on WEE1, the “293T-LentiX WEE1-ePL Degradation 4 hr (Ymin)” value was found to be 43.45 and the DC50 was 0.0133 µM. For the same compound, in the assay on MKN45 cells, the EC50 was determined as 0.185 µM and the “MKN45 Cell Prolif. 120 hr (Ymin-Obs)” value is reported as 53.33.

In the case of `O=C1CCC(N2Cc3cc(O[C@H]4CCN(Cc5cnc6cccc(F)c6c5)C4)ccc3C2=O)C(=O)N1` (stereo partly drawn) [3-(5-{[(3S)-1-[(5-fluoroquinolin-3-yl)methyl]pyrrolidin-3-yl]oxy}-1-oxo-2,3-dihydro-1H-isoindol-2-yl)piperidine-2,6-dione], on WEE1, the “293T-LentiX WEE1-ePL Degradation 4 hr (Ymin)” value is recorded as 31.52 and the DC50 was determined as 0.012 µM. In the assay on MKN45 cells, the EC50 was determined as 0.309 µM and the “MKN45 Cell Prolif. 120 hr (Ymin-Obs)” value is on record as 35.14.
